Measured values reported in PubChem BioAssay AID2060891 (Molecular Pharmacology Branch, DTP, NCI, 2025).

Tested on: K98450-129-R-PDC complex spheroid growth, percent test/control
Experiment: Anticancer human tumor K98450-129-R-PDC patient-derived colon adenocarcinoma cell line growth inhibition [RAS]
Conditions: for IC50: curve of first compound; for viability, T/C: stronger effect = lower value; active means viability on the fitted dose curve at most 10% of control; inactive means the rest
Outline: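 Tumour cells grown as complex spheroids with HUVEC endothelial cells and mesenchymal stem cells, treated with RAS pathway inhibitor combinations. Each agent spans half-log steps from near clinical Cmax, or 10 microM where Cmax is unknown.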

[1] = second compound 0.00316 µM, first compound 0.000949 µM
[2] = second compound 0.00316 µM, first compound 0.003 µM
[3] = second compound 0.00316 µM, first compound 0.00949 µM
[4] = second compound 0.00316 µM, first compound 0.03 µM
[5] = second compound 0.00316 µM, first compound 0.0949 µM
[6] = second compound 0.00316 µM, first compound 0.3 µM
[7] = second compound 0.01 µM, first compound 0.000949 µM
[8] = second compound 0.01 µM, first compound 0.003 µM
[9] = second compound 0.01 µM, first compound 0.00949 µM
[10] = second compound 0.01 µM, first compound 0.03 µM
[11] = second compound 0.01 µM, first compound 0.0949 µM
[12] = second compound 0.01 µM, first compound 0.3 µM
[13] = second compound 0.0316 µM, first compound 0.000949 µM
[14] = second compound 0.0316 µM, first compound 0.003 µM
[15] = second compound 0.0316 µM, first compound 0.00949 µM
[16] = second compound 0.0316 µM, first compound 0.03 µM
[17] = second compound 0.0316 µM, first compound 0.0949 µM
[18] = second compound 0.0316 µM, first compound 0.3 µM
[19] = second compound 0.1 µM, first compound 0.000949 µM
[20] = second compound 0.1 µM, first compound 0.003 µM
[21] = second compound 0.1 µM, first compound 0.00949 µM
[22] = second compound 0.1 µM, first compound 0.03 µM
[23] = second compound 0.1 µM, first compound 0.0949 µM
[24] = second compound 0.1 µM, first compound 0.3 µM
[25] = second compound 0.316 µM, first compound 0.000949 µM
[26] = second compound 0.316 µM, first compound 0.003 µM
[27] = second compound 0.316 µM, first compound 0.00949 µM
[28] = second compound 0.316 µM, first compound 0.03 µM
[29] = second compound 0.316 µM, first compound 0.0949 µM
[30] = second compound 0.316 µM, first compound 0.3 µM
[31] = second compound 1 µM, first compound 0.000949 µM
[32] = second compound 1 µM, first compound 0.003 µM
[33] = second compound 1 µM, first compound 0.00949 µM
[34] = second compound 1 µM, first compound 0.03 µM
[35] = second compound 1 µM, first compound 0.0949 µM
[36] = second compound 1 µM, first compound 0.3 µM
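Further: spheroids exposed to agents for seven days before the viability readout.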
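Wherever viability, T/C is given: luminescence used as a proxy for viable cell amount.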

CC(=O)OC12COC1CC(O)C1(C)C(=O)C(O)C3=C(C)C(OC(=O)C(O)C(NC(=O)OC(C)(C)C)c4ccccc4)CC(O)(C(OC(=O)c4ccccc4)C21)C3(C)C (stereo unspecified) + C=CC(=O)N1CCN(c2nc(OCC3CCCN3C)nc3c(F)c(-c4nc(N)cc(C)c4C(F)(F)F)c(Cl)cc23)C(C)C1
0.223 µM: IC50 (second compound 0.01 µM)
0.27 µM: IC50 (second compound 0.00316 µM)
< 0.0316 µM: IC50 (second compound 0.1 µM) | IC50 (second compound 0.316 µM) | IC50 (second compound 1 µM)
inactive: viability, T/C (second compound 0.00316 µM, first compound 0.0316 µM) 91.4% | viability, T/C (second compound 0.00316 µM, first compound 0.1 µM) 83.6% | viability, T/C (second compound 0.00316 µM, first compound 0.316 µM) 44.3% | viability, T/C (second compound 0.00316 µM, first compound 1 µM) 27.3% | viability, T/C (second compound 0.00316 µM, first compound 3.16 µM) 23.6% | viability, T/C (second compound 0.00316 µM, first compound 10 µM) 22.6% | viability, T/C (second compound 0.01 µM, first compound 0.0316 µM) 88.2% | viability, T/C (second compound 0.01 µM, first compound 0.1 µM) 83.1% | viability, T/C (second compound 0.01 µM, first compound 0.316 µM) 35.4% | viability, T/C (second compound 0.01 µM, first compound 1 µM) 22.8% | viability, T/C (second compound 0.01 µM, first compound 3.16 µM) 20.8% | viability, T/C (second compound 0.01 µM, first compound 10 µM) 19.8% | viability, T/C (second compound 0.0316 µM, first compound 0.0316 µM) 71.7% | viability, T/C (second compound 0.0316 µM, first compound 0.1 µM) 62.4% | viability, T/C (second compound 0.0316 µM, first compound 0.316 µM) 27.7% | viability, T/C (second compound 0.0316 µM, first compound 1 µM) 17.4% | viability, T/C (second compound 0.0316 µM, first compound 3.16 µM) 16.7% | viability, T/C (second compound 0.0316 µM, first compound 10 µM) 15.6% | viability, T/C (second compound 0.1 µM, first compound 0.0316 µM) 50% | viability, T/C (second compound 0.1 µM, first compound 0.1 µM) 38.4% | viability, T/C (second compound 0.1 µM, first compound 0.316 µM) 16.3% | viability, T/C (second compound 0.1 µM, first compound 1 µM) 14.6% | viability, T/C (second compound 0.1 µM, first compound 3.16 µM) 14% | viability, T/C (second compound 0.1 µM, first compound 10 µM) 14.3% | viability, T/C (second compound 0.316 µM, first compound 0.0316 µM) 35.4% | viability, T/C (second compound 0.316 µM, first compound 0.1 µM) 26.4% | viability, T/C (second compound 0.316 µM, first compound 0.316 µM) 14% | viability, T/C (second compound 0.316 µM, first compound 1 µM) 12.4% | viability, T/C (second compound 0.316 µM, first compound 3.16 µM) 12.4% | viability, T/C (second compound 0.316 µM, first compound 10 µM) 12.2% | viability, T/C (second compound 1 µM, first compound 0.0316 µM) 26.3% | viability, T/C (second compound 1 µM, first compound 0.1 µM) 18.5% | viability, T/C (second compound 1 µM, first compound 0.316 µM) 13.7% | viability, T/C (second compound 1 µM, first compound 1 µM) 12.7% | viability, T/C (second compound 1 µM, first compound 3.16 µM) 12.4% | viability, T/C (second compound 1 µM, first compound 10 µM) 13.4%
0.151 µM: IC50 (second compound 0.0316 µM)

CC1(C)CCC(Nc2ncc(C(F)(F)F)c(-c3c[nH]c4c(P(C)(C)=O)c(C#N)ccc34)n2)CN1 (stereo unspecified) + C=CC(=O)N1CCN(c2nc(OCC3CCCN3C)nc3c(F)c(-c4nc(N)cc(C)c4C(F)(F)F)c(Cl)cc23)C(C)C1
> 0.3 µM: IC50 (second compound 0.00316 µM)
0.166 µM: IC50 (second compound 0.0316 µM)
0.0721 µM: IC50 (second compound 0.1 µM)
< 0.000949 µM: IC50 (second compound 0.316 µM) | IC50 (second compound 1 µM)
inactive: viability, T/C [1] 99.3% | viability, T/C [2] 100% | viability, T/C [3] 97.8% | viability, T/C [4] 97.6% | viability, T/C [5] 84.2% | viability, T/C [6] 53.7% | viability, T/C [7] 86.4% | viability, T/C [8] 87.3% | viability, T/C [9] 84.2% | viability, T/C [10] 86.2% | viability, T/C [11] 70.6% | viability, T/C [12] 47.5% | viability, T/C [13] 70.5% | viability, T/C [14] 76.3% | viability, T/C [15] 77.3% | viability, T/C [16] 76% | viability, T/C [17] 58.5% | viability, T/C [18] 41.2% | viability, T/C [19] 60.1% | viability, T/C [20] 54.5% | viability, T/C [21] 56.1% | viability, T/C [22] 59% | viability, T/C [23] 46% | viability, T/C [24] 34.5% | viability, T/C [25] 41.1% | viability, T/C [26] 41.3% | viability, T/C [27] 40.6% | viability, T/C [28] 41.3% | viability, T/C [29] 37.8% | viability, T/C [30] 31% | viability, T/C [31] 35.1% | viability, T/C [32] 33.3% | viability, T/C [33] 35.1% | viability, T/C [34] 33.8% | viability, T/C [35] 32.9% | viability, T/C [36] 32.5%
0.27 µM: IC50 (second compound 0.01 µM)

CCc1c2c(nc3ccc(O)cc13)-c1cc3c(c(=O)n1C2)COC(=O)[C@]3(O)CC + C=CC(=O)N1CCN(c2nc(OCC3CCCN3C)nc3c(F)c(-c4nc(N)cc(C)c4C(F)(F)F)c(Cl)cc23)C(C)C1
0.0281 µM: IC50 (second compound 0.00316 µM)
0.00326 µM: IC50 (second compound 0.1 µM)
inactive: viability, T/C [1] 93.5% | viability, T/C [2] 87.7% | viability, T/C [3] 68.1% | viability, T/C [4] 49.7% | viability, T/C [5] 34.1% | viability, T/C [6] 27.6% | viability, T/C [7] 86.7% | viability, T/C [8] 76.1% | viability, T/C [9] 60.6% | viability, T/C [10] 39.1% | viability, T/C [11] 29.2% | viability, T/C [12] 23.6% | viability, T/C [13] 74.5% | viability, T/C [14] 63.8% | viability, T/C [15] 46.1% | viability, T/C [16] 24.1% | viability, T/C [17] 20.6% | viability, T/C [18] 18% | viability, T/C [19] 54.6% | viability, T/C [20] 53.3% | viability, T/C [21] 33% | viability, T/C [22] 20.3% | viability, T/C [23] 16.7% | viability, T/C [24] 11.7% | viability, T/C [25] 38.1% | viability, T/C [26] 35.4% | viability, T/C [27] 25.4% | viability, T/C [28] 16.6% | viability, T/C [29] 15% | viability, T/C [30] 9.83% | viability, T/C [31] 31.7% | viability, T/C [32] 30.3% | viability, T/C [33] 23.6% | viability, T/C [34] 18.9% | viability, T/C [35] 14.1%
< 0.000949 µM: IC50 (second compound 0.316 µM) | IC50 (second compound 1 µM)
0.007 µM: IC50 (second compound 0.0316 µM)
0.0166 µM: IC50 (second compound 0.01 µM)
active: viability, T/C [36] 8.49%
